Data reported in patent US11413348B2, “Low molecular weight cationic lipids for oligonucleotide delivery” (SIRNA THERAPEUTICS, INC., priority 2010, dated 2022).

Tests used:
[1] = Rhesus monkey in vivo evaluation of ALT increases; details: serum, FIG. 6
Description: Alanine aminotransferase (ALT) is measured in serum that is harvested from clotted monkey whole blood after centrifugation. A Roche Modular System automated chemistry analyzer measures the enzymatic activity of ALT in the serum by using International Federation of Clinical Chemistry standardized procedures and reagents. The analyzer's computer uses absorbance measurements to calculated ALT activity in the sample as compared to a standard curve. The ALT activity is reported in International Units per Liter (IU/L).

[2] = Rat in vivo evaluation of toxicity (serum ALT and AST); details: ApoB siRNA RDV, tail vein, 24 hours after dosing, FIG. 2
Description: Six hours post dose, food is removed from the cages. Animal necropsy is performed 24 hours after LNP dosing. Rats are anesthetized under isoflurane for 5 minutes, then maintained under anesthesia by placing them in nose cones continuing the delivery of isoflurane until ex-sanguination is completed. Blood is collected from the vena cava using a 23 gauge butterfly venipuncture set and aliquoted to serum separator vacutainers for serum chemistry analysis. Punches of the excised caudate liver lobe are taken and placed in RNALater (Ambion) for mRNA analysis. Preserved liver tissue was homogenized and total RNA isolated using a Qiagen bead mill and the Qiagen miRNA-Easy RNA isolation kit following the manufacturer's instructions. Liver ApoB mRNA levels were determined by quantitative RT-PCR. Message was amplified from purified RNA utilizing a rat ApoB commercial probe set (Applied Biosystems Cat #RN01499054_m1). The PCR reaction was performed on an ABI 7500 instrument with a 96-well Fast Block. The ApoB mRNA level is normalized to the housekeeping PPIB (NM 011149) mRNA. PPIB mRNA levels were determined by RT-PCR using a commercial probe set (Applied Biosytems Cat. No. Mm00478295_m1). Results are expressed as a ratio of ApoB mRNA/PPIB mRNA. All mRNA data is expressed relative to the PBS control dose. […]

[3] = Determination of cationic lipid levels in rat liver (LC/MS-MS); assay type: in vivo; details: rats, FIG. 3
Description: Liver tissue was weighed into 20-ml vials and homogenized in 9 v/w of water using a GenoGrinder 2000 (OPS Diagnostics, 1600 strokes/min, 5 min). A 50 μL aliquot of each tissue homogenate was mixed with 300 μL of extraction/protein precipitating solvent (50/50 acetonitrile/methanol containing 500 nM internal standard) and the plate was centrifuged to sediment precipitated protein. A volume of 200 μL of each supernatant was then transferred to separate wells of a 96-well plate and 10 μl samples were directly analyzed by LC/MS-MS.
Standards were prepared by spiking known amounts of a methanol stock solution of compound into untreated rat liver homogenate (9 vol water/weight liver). Aliquots (50 μL) each standard/liver homogenate was mixed with 300 μL of extraction/protein precipitating solvent (50/50 acetonitrile/methanol containing 500 nM internal standard) and the plate was centrifuged to sediment precipitated protein. A volume of 200 μL of each supernatant was transferred to separate wells of a 96-well plate and 10 μl of each standard was directly analyzed by LC/MS-MS.
Absolute quantification versus standards prepared and extracted from liver homogenate was performed using an Aria LX-2 HPLC system (Thermo Scientific) coupled to an API 4000 triple quadrupole mass spectrometer (Applied Biosystems). […]

SMILES | peak ALT elevations compared with RDV containing DLinKC2DMA (Compound 45) or MC3 (Compound 46) [1] | tolerability (serum ALT and AST) compared with RDV containing DLinKC2DMA (Compound 45) or MC3 (Compound 46) [2] | cationic lipid liver levels compared with RDV containing DLinKC2DMA (Compound 45) or MC3 (Compound 46) [3]
CCCCCCCCCC(CCCCCCCC1CC1CCCCCCCC)N(C)C [Compound 33, N,N-dimethyl-1-[(1S,2R)-2-octylcyclopropyl]hepladecan-8-amine] | lower peak ALT elevations | improved tolerability | either similar to or lower than
CCCCC/C=C\C/C=C\CCCCCCCCCC(CCCCCCCCC)CCN(C)C (stereo not drawn) [Compound 32, (13Z,16Z)—N,N-dimethyl-3-nonyldocosa-13,16-dien-1-amine] | lower peak ALT elevations | improved tolerability | either similar to or lower than
